Results taken from patent US10081624B2, “Heterocyclic compound” (Takeda Pharmaceutical Company Limited, priority 2014, dated 2018).

What was measured:
[1] = biological target: T1, HDAC6 enzyme (Homo sapiens, UniProt Q9UBN7); test: HDAC6 enzyme inhibitory assay (HDAC-Glo I/II Assay kit); type: biochemical; details: 1 μM test compound; for inhibition at 1 µM: read-out: HDAC6 inhibitory rate (%) (1 μM)
T1 construct: prepared by transducing full length HDAC1 and HDAC6 genes into Sf-9 insect cells; GST; purchased SignalChem; host or cells: Sf-9 insect cells
T1 sequence (Q9UBN7 1-1215): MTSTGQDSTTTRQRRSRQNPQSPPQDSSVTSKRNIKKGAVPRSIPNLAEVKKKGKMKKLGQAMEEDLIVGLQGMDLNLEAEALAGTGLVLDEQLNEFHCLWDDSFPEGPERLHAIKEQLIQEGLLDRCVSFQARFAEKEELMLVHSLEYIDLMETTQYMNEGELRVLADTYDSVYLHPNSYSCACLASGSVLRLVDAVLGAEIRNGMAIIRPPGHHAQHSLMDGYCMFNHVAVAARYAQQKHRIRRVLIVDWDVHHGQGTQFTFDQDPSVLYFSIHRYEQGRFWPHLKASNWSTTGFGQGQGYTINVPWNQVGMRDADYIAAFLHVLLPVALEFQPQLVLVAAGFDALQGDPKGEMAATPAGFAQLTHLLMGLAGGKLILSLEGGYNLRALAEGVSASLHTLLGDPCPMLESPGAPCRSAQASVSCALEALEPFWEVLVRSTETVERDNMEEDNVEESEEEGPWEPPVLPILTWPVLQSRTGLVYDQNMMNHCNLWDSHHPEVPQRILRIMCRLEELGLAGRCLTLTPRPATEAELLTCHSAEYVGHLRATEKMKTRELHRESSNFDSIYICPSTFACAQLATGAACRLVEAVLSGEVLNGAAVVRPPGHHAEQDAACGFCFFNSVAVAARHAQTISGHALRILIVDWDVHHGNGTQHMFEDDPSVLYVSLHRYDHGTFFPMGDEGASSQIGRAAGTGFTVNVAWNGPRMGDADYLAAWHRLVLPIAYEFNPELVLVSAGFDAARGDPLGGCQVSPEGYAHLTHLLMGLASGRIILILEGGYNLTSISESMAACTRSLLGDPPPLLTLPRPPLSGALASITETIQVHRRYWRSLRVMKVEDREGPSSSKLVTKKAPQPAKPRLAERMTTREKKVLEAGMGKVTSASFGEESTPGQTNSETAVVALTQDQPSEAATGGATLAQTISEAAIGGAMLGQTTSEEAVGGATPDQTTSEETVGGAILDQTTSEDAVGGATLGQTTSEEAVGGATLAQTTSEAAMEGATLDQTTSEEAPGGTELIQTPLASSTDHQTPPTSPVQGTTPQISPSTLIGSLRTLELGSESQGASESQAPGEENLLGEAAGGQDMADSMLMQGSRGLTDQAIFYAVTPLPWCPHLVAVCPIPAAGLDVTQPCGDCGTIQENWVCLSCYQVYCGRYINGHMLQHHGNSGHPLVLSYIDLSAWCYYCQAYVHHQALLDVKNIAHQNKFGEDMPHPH
In short: (§1)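 Sf-9-expressed GST-purified full-length HDAC1/HDAC6; cpd + enzyme 60 min RT, 24 mM Tris-HCl pH 7.5, 135 mM NaCl, 0.6 mM glutathione, 0.01% Tween-20; substrate-developer 20 min RT; luminescence; no-enzyme wells = 100% inhibition.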

[2] = biological target: T2, HDAC1 enzyme (Homo sapiens, UniProt Q13547); test: HDAC1 enzyme inhibitory assay (HDAC-Glo I/II Assay kit); type: biochemical; details: 1 μM test compound; for inhibition at 1 µM: read-out: HDAC1 inhibitory rate (%) (1 μM)
T2 construct: prepared by transducing full length HDAC1 and HDAC6 genes into Sf-9 insect cells; GST; purchased SignalChem; host or cells: Sf-9 insect cells
In short: as §1

T2 sequence (Q13547 whole entry): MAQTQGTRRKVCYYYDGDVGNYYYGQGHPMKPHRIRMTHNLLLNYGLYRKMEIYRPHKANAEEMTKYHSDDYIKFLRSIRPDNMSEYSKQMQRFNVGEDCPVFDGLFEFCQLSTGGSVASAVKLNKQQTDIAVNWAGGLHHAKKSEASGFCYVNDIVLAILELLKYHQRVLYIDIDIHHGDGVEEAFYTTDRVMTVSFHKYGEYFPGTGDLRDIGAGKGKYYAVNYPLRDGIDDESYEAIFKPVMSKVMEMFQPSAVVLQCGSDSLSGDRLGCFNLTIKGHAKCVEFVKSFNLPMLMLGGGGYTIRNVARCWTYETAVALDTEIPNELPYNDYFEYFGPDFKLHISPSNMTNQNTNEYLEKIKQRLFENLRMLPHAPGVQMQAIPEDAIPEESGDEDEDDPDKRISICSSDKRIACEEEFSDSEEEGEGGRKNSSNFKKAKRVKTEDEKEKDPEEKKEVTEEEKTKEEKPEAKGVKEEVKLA

inhibition at 1 µM [1] [%]	inhibition at 1 µM [2] [%]	Compound	further results
96	10	O=C(NC[C@H]1COCCN1C(=O)N1CC2CCC(C1)O2)c1ccc(-c2noc(C(F)(F)F)n2)cc1 [Example 110, N-(((3S)-4-(8-oxa-3-azabicyclo[3.2.1]oct-3-ylcarbonyl)morpholin-3-yl)methyl)-4-(5-(trifluoromethyl)-1,2,4-oxadiazol-3-yl)benzamide]	–
93	15	O=C(NCC1Cc2ccccc2N1C(=O)c1ccccc1)c1ccc(-c2noc(C(F)(F)F)n2)cc1 (stereo not drawn) [Example 167, N-((1-benzoyl-2,3-dihydro-1H-indol-2-yl)methyl)-4-(5-(trifluoromethyl)-1,2,4-oxadiazol-3-yl)benzamide]	–
101	53	O=C(NC[C@H]1COCCN1C(=O)C(F)(F)c1ccccc1)c1ccc(-c2noc(C(F)(F)F)n2)s1 [Example 261, N-(((3S)-4-(difluoro(phenyl)acetyl)morpholin-3-yl)methyl)-5-(5-(trifluoromethyl)-1,2,4-oxadiazol-3-yl)thiophene-2-carboxamide]	–
95	10	O=C(NC[C@@H]1COCCN1C(=O)CC1CC1)c1ccc(-c2noc(C(F)(F)F)n2)cc1 [Example 148, N-(((3R)-4-(cyclopropylacetyl)morpholin-3-yl)methyl)-4-(5-(trifluoromethyl)-1,2,4-oxadiazol-3-yl)benzamide]	–
–	–	O=C(NC[C@H]1COCCN1C(=O)N1CCCC1CCO)c1ccc(-c2noc(C(F)(F)F)n2)cc1 (stereo partly drawn) [Example 306, N-(((3S)-4-((2-(2-hydroxyethyl)pyrrolidin-1-yl)carbonyl)morpholin-3-yl)methyl)-4-(5-(trifluoromethyl)-1,2,4-oxadiazol-3-yl)benzamide]	HDAC6 inhibitory rate (%) (1 μM) ([1]; 1 µM): 88%; HDAC1 inhibitory rate (%) (1 μM) [2]: 5%
–	–	O=C(NC[C@H]1COCCN1C(=O)N1CCCCC1CO)c1ccc(-c2noc(C(F)(F)F)n2)cc1 (stereo partly drawn) [Example 304, N-(((3S)-4-((2-(hydroxymethyl)piperidin-1-yl)carbonyl)morpholin-3-yl)methyl)-4-(5-(trifluoromethyl)-1,2,4-oxadiazol-3-yl)benzamide]	HDAC6 inhibitory rate (%) (1 μM) [1]: 99%; HDAC1 inhibitory rate (%) (1 μM) ([2]; 1 µM): 9%
96	6	O=C(NC[C@@H]1COCCN1C(=O)c1ccno1)c1ccc(-c2noc(C(F)(F)F)n2)cc1 [Example 133, N-(((3R)-4-(1,2-oxazol-5-ylcarbonyl)morpholin-3-yl)methyl)-4-(5-(trifluoromethyl)-1,2,4-oxadiazol-3-yl)benzamide]	–
94	3	O=C(NC[C@H]1COCCN1C(=O)N1CC[C@H](O)C1)c1ccc(-c2noc(C(F)(F)F)n2)cc1 [Example 274, N-(((3S)-4-(((3S)-3-hydroxypyrrolidin-1-yl)carbonyl)morpholin-3-yl)methyl)-4-(5-(trifluoromethyl)-1,2,4-oxadiazol-3-yl)benzamide]	–
–	–	O=C(NC[C@H]1COCCN1C(=O)N1CCC(CO)C1)c1ccc(-c2noc(C(F)(F)F)n2)cc1 (stereo partly drawn) [Example 299, N-(((3S)-4-((3-(hydroxymethyl)pyrrolidin-1-yl)carbonyl)morpholin-3-yl)methyl)-4-(5-(trifluoromethyl)-1,2,4-oxadiazol-3-yl)benzamide]	HDAC6 inhibitory rate (%) (1 μM) ([1]; 1 µM): 94%; HDAC1 inhibitory rate (%) (1 μM) ([2]; 1 µM): 4%
–	–	O=C(NC[C@H]1COCCN1C(=O)N1CCC(CCO)C1)c1ccc(-c2noc(C(F)(F)F)n2)cc1 (stereo partly drawn) [Example 301, N-(((3S)-4-((3-(2-hydroxyethyl)pyrrolidin-1-yl)carbonyl)morpholin-3-yl)methyl)-4-(5-(trifluoromethyl)-1,2,4-oxadiazol-3-yl)benzamide]	HDAC6 inhibitory rate (%) (1 μM) ([1]; 1 µM): 92%; HDAC1 inhibitory rate (%) (1 μM) ([2]; 1 µM): 3%
97	16	O=C(NC[C@H]1COCCN1C(=O)C1(c2ccccc2)CC1)c1ccc(-c2noc(C(F)(F)F)n2)cc1 [Example 56, N-(((3S)-4-((1-phenylcyclopropyl)carbonyl)morpholin-3-yl)methyl)-4-(5-(trifluoromethyl)-1,2,4-oxadiazol-3-yl)benzamide]	–
98	27	Cc1nonc1C(=O)N1CCOC[C@@H]1CNC(=O)c1ccc(-c2noc(C(F)(F)F)n2)cc1 [Example 60, N-(((3S)-4-((4-methyl-1,2,5-oxadiazol-3-yl)carbonyl)morpholin-3-yl)methyl)-4-(5-(trifluoromethyl)-1,2,4-oxadiazol-3-yl)benzamide]	–
95	8	O=C(NCC1CCc2ccccc2N1C(=O)C1CC1)c1ccc(-c2noc(C(F)(F)F)n2)cc1 (stereo not drawn) [Example 172, N-((1-(cyclopropylcarbonyl)-1,2,3,4-tetrahydroquinolin-2-yl)methyl)-4-(5-(trifluoromethyl)-1,2,4-oxadiazol-3-yl)benzamide]	–
97	16	O=C(NCC1CCCN1C(=O)c1ccccc1)c1ccc(-c2noc(C(F)(F)F)n2)cc1 (stereo not drawn) [Example 162, N-((1-benzoylpyrrolidin-2-yl)methyl)-4-(5-(trifluoromethyl)-1,2,4-oxadiazol-3-yl)benzamide]	–
95	1	N#C[C@H]1CCCN1C(=O)N1CCOC[C@@H]1CNC(=O)c1ccc(-c2noc(C(F)(F)F)n2)cc1 [Example 284, N-(((3S)-4-(((2R)-2-cyanopyrrolidin-1-yl)carbonyl)morpholin-3-yl)methyl)-4-(5-(trifluoromethyl)-1,2,4-oxadiazol-3-yl)benzamide]	–
99	20	O=C(NCC1COCCN1C(=O)c1ccc2nccn2c1)c1ccc(-c2noc(C(F)(F)F)n2)cc1 (stereo not drawn) [Example 20, N-((4-(imidazo[1,2-a]pyridin-6-ylcarbonyl)morpholin-3-yl)methyl)-4-(5-(trifluoromethyl)-1,2,4-oxadiazol-3-yl)benzamide]	–
59	-1	CN1CCC[C@H]1C(=O)N1CCOC[C@@H]1CNC(=O)c1ccc(-c2noc(C(F)(F)F)n2)cc1 [Example 270, N-(((3S)-4-(1-methyl-L-prolyl)morpholin-3-yl)methyl)-4-(5-(trifluoromethyl)-1,2,4-oxadiazol-3-yl)benzamide]	–
100	25	Cn1nccc1C(=O)N1CCOC[C@@H]1CNC(=O)c1ccc(-c2noc(C(F)(F)F)n2)cc1 [Example 38, N-(((3S)-4-((1-methyl-1H-pyrazol-5-yl)carbonyl)morpholin-3-yl)methyl)-4-(5-(trifluoromethyl)-1,2,4-oxadiazol-3-yl)benzamide]	–
85	5	O=C(NC[C@H]1COCCN1C(=O)N1CC[C@@H](O)C1)c1ccc(-c2noc(C(F)(F)F)n2)cc1 [Example 275, N-(((3S)-4-(((3R)-3-hydroxypyrrolidin-1-yl)carbonyl)morpholin-3-yl)methyl)-4-(5-(trifluoromethyl)-1,2,4-oxadiazol-3-yl)benzamide]	–
94	7	O=C(NC[C@@H]1COCCN1C(=O)C1CC1)c1ccc(-c2noc(C(F)(F)F)n2)cc1 [Example 147, N-(((3R)-4-(cyclopropylcarbonyl)morpholin-3-yl)methyl)-4-(5-(trifluoromethyl)-1,2,4-oxadiazol-3-yl)benzamide]	–
83	3	N#C[C@@H]1CCCN1C(=O)N1CCOC[C@@H]1CNC(=O)c1ccc(-c2noc(C(F)(F)F)n2)cc1 [Example 285, N-(((3S)-4-(((2S)-2-cyanopyrrolidin-1-yl)carbonyl)morpholin-3-yl)methyl)-4-(5-(trifluoromethyl)-1,2,4-oxadiazol-3-yl)benzamide]	–
